Experimental data: patent US4946954A, “Platinum pharmaceutical agents” (priority 1989, dated 1990)

Experiments:
murine P388 leukemia [1] = assay: Example XXI: antileukemic activity against murine P388 leukemia, mean survival days and percentage increased life span; format: in vivo; conditions: 10 mg/kg i.p. on day 1; 1×10^6 P388 cells i.p.; CD2F1 male mice; 5% ethanol, 95% sterile water
Description: The cyclohexane-1,2-diammine-platinum(II) salt of 2-(acetylamino)-3,4,6-tri-O-acetyl-2-deoxyglucopyranosyl-amino-thioxomethyl-imino diacetic acid and cisplatin were tested against murine P388 leukemia. The murine P388 leukemia system is known to be sensitive to cisplatin. The leukemia was maintained intraperitoneally in female DBA/2 mice.
Prior to administration, cisplatin was dissolved in ethanol. The solution was then adjusted to 5% ethanol, 95% sterile water The cyclohexane-1,2-diammine-platinum(II) salt of 2-(acetylamino)-3,4,6-tri-O-acetyl-2-deoxyglucopyranosylamino-thioxomethyl-imino diacetic acid was dissolved in sterile water at 4 degrees celsius immediately prior to administration.
Each compound was administered intraperitoneally to groups of CD2F1 male mice on day 1 after intraperitoneal implantation of 1×10^6 P388 leukemia cells. P388 antileukemic activity for each compound was assessed by mean survival days and percentage increased life span (% ILS).
% ILS is calculated as follows: […]
(§1) wherein T is the mean survival days of the treated mice and C is the mean survival days of the untreated mice.

murine P388 leukemia [2] = assay: Example XXXVII: antileukemic activity against murine P388 leukemia, mean survival days and percentage increased life span; format: in vivo; conditions: 10 mg/kg i.p. on day 1; 1×10^6 P388 cells i.p.; CD2F1 male mice; in sterile saline
Description: The compound 2-[[[3,4,6-tri-O-acetyl-2-(N-acetylamino)-2-deoxy-alpha-D-glucopyranosyl]amino]thioxomethyl]amino]butane-dioato-O,O']-[1,2-cyclohexanediammine-N,N']platinum (II) and cisplatin were tested against murine P388 leukemia. The murine P388 leukemia system is known to be sensitive to cisplatin. The leukemia was maintained intraperitoneally in female DBA/2 mice.
Prior to administration, cisplatin was dissolved in sterile saline (0.85% sodium chloride). The compound 2-[[[3,4,6-tri-O-acetyl-2-(N-acetylamino)-2-deoxy-alpha-D-glucopyranosyl]amino]-thioxomethyl]amino]butanedioato-O,O']-[1,2-cyclohexanediammine-N,N']platinum (II) was dissolved in sterile water at 4° C. immediately prior to administration.
Each compound was administered intraperitoneally to groups of CD2F1 male mice on day 1 after intraperitoneal implantation of 1×10^6 P388 leukemia cells. P388 antileukemic activity for each compound was assessed by mean survival days and percentage increased life span (%ILS).
%ILS is calculated as follows: […]
as §1

P388 cells = assay: Example XXXIX: Murine Antitumor Activity, P388 Antitumor Activity % ILS; format: in vivo, murine; male CD2F1 mice; conditions: vehicle mean survival 8.5 days
Description: (§2) Murine Antitumor Activity
(§3) *P388 cells implanted intraperitoneally (i.p.) into male CD2F1 mice
(§4) on Day 0. Drugs (in 5% dextrose) administered i.p. on Day 1. Increase in
(§5) life span (% ILS) was calculated compared to a group of mice receiving
(§6) drug vehicle, with a mean survival of 8.5 days.
(§7) +compound was administered as a suspension.

male CD2F1 mice = assay: Example XXXIX: Deaths Due to Drug Toxicity; format: in vivo
Description: as §2, §3, §4, §5, §6, §7

[3] = 150 mg/kg single dose i.p. on Day 1, in 5% dextrose
[4] = 250 mg/kg single dose i.p. on Day 1, administered as a suspension
[5] = 200 mg/kg single dose i.p. on Day 1, in 5% dextrose

In the case of `N.N.[Cl][Pt][Cl]` [cisplatin, cis-diammine-dichloroplatinum (II)], the “% ILS (percentage increased life span)” value (murine P388 leukemia [1]) was 83%, the “Mean Survival” value (murine P388 leukemia [1]) was 17.4 days and the “% ILS (percentage increased life span)” value (murine P388 leukemia [2]) was 96%. The “Mean Survival” value (murine P388 leukemia [2]) was 15.7 days.

For “cis-R,R-[2-[(pentalacetylgluconyl)imino]propanedioato-O,O'](1,2-cyclohexanediammine-N,N')platinum(II) [R,R-AG-AMP]”, the “P388 Antitumor Activity: % ILS” value (P388 cells; [3]) was 75% and the “Deaths Due to Drug Toxicity” value (male CD2F1 mice; [3]) was 0/10.

“Cis-R,R-(formamidomalonato-O,O')(1,2-cyclohexanediamine-N,N') platinum (II) [FMP]” was tested, and the “P388 Antitumor Activity: % ILS” value (P388 cells; 150 mg/kg single dose i.p. on Day 1, administered as a suspension) was 84%, the “P388 Antitumor Activity: % ILS” value (P388 cells; 200 mg/kg single dose i.p. on Day 1, administered as a suspension) was 115% and the “P388 Antitumor Activity: % ILS” value (P388 cells; [4]) was 81%. The “Deaths Due to Drug Toxicity” value (male CD2F1 mice; [4]) was 2/10.

For “Cis-R,R-(acetamidomalonato-O,O')(1,2-cyclohexanediamine-N,N')platinum (II) [AMP]”, the “P388 Antitumor Activity: % ILS” value (P388 cells; [3]) was 115%, the “P388 Antitumor Activity: % ILS” value (P388 cells; [5]) was 93% and the “Deaths Due to Drug Toxicity” value (male CD2F1 mice; [5]) was 1/10. For the same molecule, the “Deaths Due to Drug Toxicity” value (male CD2F1 mice; 250 mg/kg single dose i.p. on Day 1, in 5% dextrose) was 5/10.
